# Tests used:
# [1] = system: S. aureus, S. pneumoniae, S. pyogenes, and E. faecalis; test: Broth microdilution MIC (CLSI), major Gram-positive organisms; type: cell-based; details: against some strains of S. aureus
# Protocol: (§1) Compounds of the present invention were tested for antibacterial activity against a variety of pathogenic organisms including S. aureus, S. pneumoniae, S. pyogenes, E. faecalis, H. influenza and M. catarrhalis using a standard broth microdilution method to determine their minimum inhibitory concentrations (MICs). All compounds were tested using standard methods in accordance with CLSI guidelines (Clinical and Laboratory Standards Institute). […] Compounds of the present invention were not compromised by existing resistance to all drug classes tested, including β-lactams, glycopeptides, oxazolidinones, macrolides, and fluoroquinolones. In particular, the compound described in Example 31 was active against methicillin-(oxacillin-) resistant S. aureus (MRSA), vancomycin-intermediate S. aureus (VISA), linezolid-resistant S. aureus, methicillin-(oxacillin-) resistant S. epidermidis, macrolide-resistant S. pyogenes, macrolide-, penicillin-, and levofloxacin-resistant S. pneumoniae, and vancomycin-resistant E. faecalis (VRE).
# [2] = target: S. pyogenes PolC (Streptococcus pyogenes, UniProt Q8NZB5); test: Inhibition of PolC primer extension activity (scintillation proximity assay); type: biochemical; details: serial 2-fold dilutions, XLfit
# Protocol: The polC gene from Streptococcus pyogenes was overexpressed and PolC was purified as described in PCT/JUS05/15548. Primer extension activity of PolC was measured using 1 μM oligonucleotide primer-template (primer strand 5′-ACCAGTGAGACGGGCAACA (SEQ ID NO: 1), template strand 5′-[…] SEQ ID NO: 2)). Reactions contained 10 mM magnesium acetate, 50 mM Tricine/Tris pH 7.8, 2.4% (w/v) polyethylene glycol (˜8000 MW), 0.024% pluronic F68, 1 mM dithiothreitol, 20 μM dATP, 20 μM dCTP, 0.5 μM dGTP, 0.72 μM dTTP, 0.28 μM 3H-dTTP (0.005 μCi/μL), 8% DMSO and 15 nM PolC. Reactions (25 μL) were incubated for 10 minutes at room temperature and stopped by addition of an equal volume of 100 mM EDTA. Incorporation of radiolabelled dTTP was measured by scintillation proximity assay by addition of 100 μL of 1 mg/mL PEI-PVT beads in 300 mM citrate pH 3.0.
# Compounds of formula (I) were tested for inhibition of S. pyogenes PolC activity. Serial 2-fold dilutions of compounds were tested for inhibition of PolC activity and IC50's were determined (XLfit). […] These compounds were specific for prokaryotic DNA polymerase, showing little or no inhibition of eukaryotic S. cerevisiae polymerase delta at concentrations up to 160 μM.
# [3] = system: MRSA, vancomycin-resistant E. faecalis (VRE), vancomycin-resistant E. faecium and macrolide-resistant S. pyogenes; test: MIC90 against resistant Gram-positive bacteria; type: cell-based, S. aureus
# Protocol: as §1
# [4] = system: macrolide-resistant S. pyogenes; test: Antibacterial activity against resistant strains (MIC); type: cell-based
# Protocol: as §1
# [5] = system: vancomycin-, macrolide-, and ciprofloxacin-resistant E. faecium; test: as above; type: cell-based
# Protocol: as §1
# [6] = system: vancomycin-intermediate S. aureus (VISA); test: as above; type: cell-based
# Protocol: as §1
# [7] = system: methicillin-(oxacillin-) resistant S. epidermidis; test: as above; type: cell-based
# Protocol: as §1
# [8] = system: vancomycin-resistant E. faecalis (VRE); test: as above; type: cell-based
# Protocol: as §1
# [9] = system: linezolid-resistant S. aureus; test: as above; type: cell-based
# Protocol: as §1
# [10] = system: methicillin-(oxacillin-) resistant S. aureus (MRSA); test: as above; type: cell-based
# Protocol: as §1
# [11] = system: macrolide-, penicillin-, and levofloxacin-resistant S. pneumoniae; test: as above; type: cell-based
# Protocol: as §1
# [12] = system: S. pneumoniae; test: Time kill kinetic studies; type: cell-based
# [13] = system: E. faecalis; test: Time kill kinetic studies; type: cell-based
# [14] = system: clinically relevant resistant strains; test: MICs in clinically relevant resistant strains (all listed strains together); type: cell-based; details: for MIC: range over the resistant strains listed
# Protocol: as §1
# [15] = system: S. aureus; test: Time kill kinetic studies; type: cell-based
# [16] = system: S. epidermidis; test: Time kill kinetic studies; type: cell-based
# [17] = system: S. pyogenes; test: Time kill kinetic studies; type: cell-based
# [18] = system: E. faecium; test: Time kill kinetic studies; type: cell-based
# Sequence of S. pyogenes PolC (Q8NZB5 whole entry): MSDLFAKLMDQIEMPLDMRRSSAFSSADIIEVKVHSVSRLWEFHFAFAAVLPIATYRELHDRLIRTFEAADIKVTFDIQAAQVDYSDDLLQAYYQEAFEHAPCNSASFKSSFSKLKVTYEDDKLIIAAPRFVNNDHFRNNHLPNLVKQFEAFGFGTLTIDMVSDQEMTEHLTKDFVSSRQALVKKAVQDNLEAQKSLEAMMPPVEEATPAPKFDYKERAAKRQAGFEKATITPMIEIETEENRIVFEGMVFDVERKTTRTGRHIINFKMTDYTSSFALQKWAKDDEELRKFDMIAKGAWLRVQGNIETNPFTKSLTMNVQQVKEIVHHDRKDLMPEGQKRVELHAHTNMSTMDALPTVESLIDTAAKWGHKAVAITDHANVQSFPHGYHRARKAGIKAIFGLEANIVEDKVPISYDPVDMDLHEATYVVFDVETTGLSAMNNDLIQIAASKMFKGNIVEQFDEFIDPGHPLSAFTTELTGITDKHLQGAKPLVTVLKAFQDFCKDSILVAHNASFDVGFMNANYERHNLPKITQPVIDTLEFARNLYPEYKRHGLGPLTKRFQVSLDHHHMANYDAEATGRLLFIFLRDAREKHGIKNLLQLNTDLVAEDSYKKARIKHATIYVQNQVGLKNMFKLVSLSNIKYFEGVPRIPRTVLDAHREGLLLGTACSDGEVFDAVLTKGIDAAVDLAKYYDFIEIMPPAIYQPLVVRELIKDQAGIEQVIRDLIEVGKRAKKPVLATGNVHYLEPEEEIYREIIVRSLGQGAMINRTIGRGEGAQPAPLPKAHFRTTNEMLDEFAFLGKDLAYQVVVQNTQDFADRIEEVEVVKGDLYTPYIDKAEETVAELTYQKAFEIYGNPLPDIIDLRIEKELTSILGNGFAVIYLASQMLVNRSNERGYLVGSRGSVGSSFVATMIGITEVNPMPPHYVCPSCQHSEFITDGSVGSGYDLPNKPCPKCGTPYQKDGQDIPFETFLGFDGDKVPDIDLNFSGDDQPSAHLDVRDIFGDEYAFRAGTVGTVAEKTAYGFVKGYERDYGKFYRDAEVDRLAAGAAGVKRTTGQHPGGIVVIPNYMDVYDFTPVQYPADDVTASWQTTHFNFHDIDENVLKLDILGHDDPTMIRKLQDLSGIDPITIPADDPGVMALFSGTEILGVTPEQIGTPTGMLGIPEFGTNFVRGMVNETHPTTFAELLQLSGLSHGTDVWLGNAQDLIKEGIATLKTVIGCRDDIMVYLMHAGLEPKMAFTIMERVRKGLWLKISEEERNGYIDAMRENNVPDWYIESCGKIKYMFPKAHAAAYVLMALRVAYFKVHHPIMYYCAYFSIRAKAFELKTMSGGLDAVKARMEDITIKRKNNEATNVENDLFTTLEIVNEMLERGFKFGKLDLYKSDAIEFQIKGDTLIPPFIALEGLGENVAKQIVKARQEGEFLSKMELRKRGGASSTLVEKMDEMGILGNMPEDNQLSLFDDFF
smiles,measurement,setting,value
"COCCOCc1csc(NC(=O)NCc2ccc3c(c2)OCO3)n1 [Example 52, 1-Benzo[1,3]dioxol-5-ylmethyl-3-[4-(2-methoxy-ethoxymethyl)-thiazol-2-yl]-urea]",MIC,[1],0.12 to 4 µg/mL
"O=C(NCc1ccc(Cl)c(Cl)c1)Nc1nc(CO)cs1 [Example 39, 1-(3,4-Dichlorobenzyl)-3-(4-(hydroxymethyl)thiazol-2-yl)urea]",MIC,[1],0.12 to 4 µg/mL
same,IC50,[2],0.11 to 25 µM
"CS(=O)(=O)CCOCc1csc(NC(=O)NCc2ccc(Cl)c(Cl)c2)n1 [Example 28, 1-(3,4-Dichlorobenzyl)-3-(4-((2-(methylsulfonyl)ethoxy)methyl)thiazol-2-yl)urea]",MIC90,[3],1 to 8 µg/mL
same,activity against resistant strain,[4],active
same,activity against resistant strain,[5],active
same,activity against resistant strain,[6],active
same,activity against resistant strain,[7]; methicillin-(oxacillin-) resistant and mupirocin resistant S. epidermidis,active
same,activity against resistant strain,"[8]; vancomycin-, macrolide-, and ciprofloxacin-resistant E. faecalis (VRE)",active
same,activity against resistant strain,[9],active
same,activity against resistant strain,[10],active
same,activity against resistant strain,[11],active
same,time kill kinetics result,[12],bactericidal
same,time kill kinetics result,[13],bactericidal
same,MICs in sensitive versus drug resistant strains,[14],comparable
same,MIC,[14],0.5 to 4 µg/mL
same,time kill kinetics result,[15],bactericidal
same,time kill kinetics result,[16],bactericidal
same,time kill kinetics result,[17],bactericidal
same,time kill kinetics result,[18],bactericidal
"CCCCOCc1csc(NC(=O)NCc2ccc(Cl)c(Cl)c2)n1 [Example 21, 1-(3,4-Dichlorobenzyl)-3-(4-(butoxymethyl)thiazol-2-yl)urea]",MIC,[1],0.12 to 4 µg/mL
"COCc1csc(NC(=O)NCc2ccc(Cl)c(Cl)c2)n1 [Example 19, 1-(3,4-Dichlorobenzyl)-3-(4-(methoxymethyl)thiazol-2-yl)urea]",IC50,[2],0.11 to 25 µM
"O=C(NCc1ccc(Cl)c(Cl)c1)Nc1nc(COCCO)cs1 [Example 31, 1-(3,4-Dichloro-benzyl)-3-[4-(2-hydroxy-ethoxymethyl)-thiazol-2-yl]-urea]",activity against resistant strain,[4],active
same,activity against resistant strain,[6],active
same,activity against resistant strain,[7]; methicillin-(oxacillin-) resistant S. epidermidis,active
same,activity against resistant strain,[8]; vancomycin-resistant E. faecalis (VRE),active
same,activity against resistant strain,[9],active
same,activity against resistant strain,[10],active
same,activity against resistant strain,[11],active
same,time kill kinetics result,[12],bactericidal
same,time kill kinetics result,[13],bactericidal
same,MICs in sensitive versus drug resistant strains,[14],comparable
same,MIC,[14],1 to 32 µg/mL
same,time kill kinetics result,[15],bactericidal
"COCCOCc1csc(NC(=O)NCc2ccc(Br)cc2)n1 [Example 56, 1-(4-bromobenzyl)-3-(4-((2-methoxyethoxy)methyl)thiazol-2-yl)urea]",IC50,[2],0.11 to 25 µM
"CC(=O)Nc1ccc(SCc2csc(NC(=O)NCc3ccc(Cl)c(Cl)c3)n2)cc1 [Example 149, 1-(3,4-dichlorobenzyl)-3-(4-((4-acetamidophenylthio)methyl)thiazol-2-yl)urea]",MIC,[1],0.12 to 4 µg/mL

# Reference: patent US8716320B2, “Antibacteriall heterocyclic ureas” (Replidyne, Inc., priority 2006, dated 2014)
